The record followed here is PubChem BioAssay (NCI).

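Following 48 hours of exposure in 96-well plates, responses at five concentrations were used to interpolate endpoints linearly. Here, GI50 denotes the concentration required for 50% inhibition of growth. TGI denotes the concentration required for complete inhibition of growth.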

Common to all, as to test: growth of human tumour cells (NCI), 48 h
Test [1] concerns MOLT-4 leukemia.
In test [2] the test system is SW-620 colon.
Test [3] concerns RXF 393 renal.
For test [4], the system named is SNB-75 CNS.
Test [5] deals with OVCAR-8 ovarian.
Test [6] concerns NCI/ADR-RES ovarian.
For test [7], the system named is SR leukemia.
The test system of test [8] is HOP-92 NSCLC.
Test [9] relates to IGROV1 ovarian.
Test [10] concerns LOX IMVI melanoma.

For the molecule `C(=C\c1ccncc1)/c1ccncc1`, the GI50 in [1], in test [2], in test [3], in [4], in [5] and in [6] was greater than 100000 nM each time. Also, the GI50 was greater than 100000 nM in test [7], 74900 nM in test [8], greater than 100000 nM in [9] and greater than 100000 nM in test [10]. For the same molecule, the TGI in test [1], in [2], in test [3], in test [4], in test [5] and in [6] was greater than 100000 nM throughout. Also, the TGI in test [7], in [8], in test [9] and in test [10] was greater than 100000 nM in each case.

On to `C[C@@H](CS[As](C)C)C(=O)N1CCC[C@H]1C(=O)O`, for which the GI50 in [1] was 93.3 nM; in [2] it was 250 nM; in [3] it was 194 nM; in test [4], 512 nM; in test [5], 299 nM; in [6], 224 nM. In addition, the GI50 in [7] is 55.3 nM; in [8], 51.4 nM; in test [9] it was 439 nM; in [10], 172 nM. The TGI was 3690 nM in test [1]; 2050 nM in test [2]; 2810 nM in test [3]; 2250 nM in test [4]; 581 nM in test [6]; 272 nM in [7]. Moreover, the TGI came to 542 nM in test [8], 3210 nM in test [9] and 673 nM in [10].
